Data on two molecules can be found in ChEMBL document CHEMBL3392970, “Novel inhibitors of platelet aggregation” (ACS Med Chem Lett, 2015).

Each structure is given as a SMILES string.

Assay [1] has as its system Plasma. Nature of the assay: Antiplatelet activity in rat platelet-rich plasma assessed as inhibition of platelet aggregation. Type of assay: functional, cell-free.
Assay [2] deals with Plasma. Nature of the assay: Antiplatelet activity in human platelet-rich plasma assessed as inhibition of platelet aggregation. In kind it is functional, cell-free.

What is called IC50 is the concentration that inhibits the measured activity by half. Take `CCCC(=O)c1cnn([C@H]2CC[C@H](NC(=O)c3cn(CC(=O)N4CCN(C)CC4)c4ccc(Cl)cc34)CC2)c1C`: the IC50 is 91 nM with Plasma [1] and 270 nM in the assay on Plasma [2].
On the same counts, the results for `CCCC(=O)c1cnn(C2CCN(NC(=O)c3cn(CC(=O)N4CCN(C)CC4)c4ccc(Cl)cc34)CC2)c1C` are 43 nM and 25 nM.
